Experimental data as given in patent publication US20260159511A1, “SMALL MOLECULE STING ANTAGONISTS” (CURADEV PHARMA PVT. LTD., priority 2021, published 2026).

tested on: IRF pathway in THP1-Dual™ cells, THP-1 (HAQ); test: Reporter gene expression assay in THP-1 cells (THP1-Dual, IRF pathway Lucia luciferase reporter, 2′,3′-cGAMP stimulation); assay type: cell-based, human; settings: Homo sapiens, read-out: THP-1 (HAQ) Activity (IC50 value range)
Method: Reporter Gene Expression Assay in THP-1 Cells
THP1-Dual™ cells (Invivogen) were derived from the human THP-1 monocyte cell line by stable integration of two inducible reporter constructs. As a result, THP1-Dual™ cells allow the simultaneous study of the IRF pathway, by assessing the activity of a secreted luciferase (Lucia) and the NF-κB pathway, by monitoring the activity of secreted SEAP. 5×10^4 THP1-Dual™ cells were seeded in 384-well plates in growth medium and preincubated with novel compounds for 10 minutes followed by stimulation with 5 μM 2′,3′-cGAMP. After 20 hr of stimulation the supernatant was removed and the IRF pathway reporter protein was readily measured in the cell culture supernatant using QUANTI-Luc™ (Invivogen), a luciferase detection reagent on a Spectramax i3X luminometer.

`O=C(Nc1ccc2c(c1)N(Cc1ccccc1)C(=O)CS2)Nc1c[nH]c2ccc(-c3ccn[nH]3)cc12` [Example 38, 1-(5-(1H-Pyrazol-5-yl)-1H-indol-3-yl)-3-(4-benzyl-3-oxo-3,4-dihydro-2H-benzo[b][1,4]thiazin-6-yl)urea] was tested, and the IC50 was 1 to 10 µM.

same assay, conditions: Homo sapiens; THP1-Dual cells preincubated with compound 10 minutes, stimulation with 5 μM 2′,3′-cGAMP for 20 hr, QUANTI-Luc readout of the supernatant; read-out: THP-1 (HAQ) Activity (IC50 value range)

`Cc1cc(CN2CCSc3cc(NC(=O)Nc4c[nH]c5ccccc45)ccc32)on1` [Example 86, 1-(1H-indol-3-yl)-3-(4-((3-methylisoxazol-5-yl)methyl)-3,4-dihydro-2H-benzo[b][1,4]thiazin-7-yl)urea] and `N#Cc1ccccc1CN1CCSc2cc(NC(=O)Nc3c[nH]c4ccccc34)ccc21` [Example 87, 1-(4-(2-cyanobenzyl)-3,4-dihydro-2H-benzo[b][1,4]thiazin-7-yl)-3-(1H-indol-3-yl)urea] cannot be ordered by IC50: less than 1 µM for the first, less than 1 µM for the second.

`COc1cccc(-c2ccc3[nH]cc(NC(=O)Nc4ccc5c(c4)N(Cc4ccccc4)C(=O)CS5)c3c2)c1` [Example 53, 1-(4-benzyl-3-oxo-3,4-dihydro-2H-benzo[b][1,4]thiazin-6-yl)-3-(5-(3-methoxyphenyl)-1H-indol-3-yl)urea] and `O=C(Nc1ccc2c(c1)N(Cc1ccccc1)C(=O)CS2)Nc1c[nH]c2ccc(-c3cccc(CO)c3)cc12` [Example 43, 1-(4-benzyl-3-oxo-3,4-dihydro-2H-benzo[b][1,4]thiazin-6-yl)-3-(5-(3-(hydroxymethyl)phenyl)-1H-indol-3-yl)urea] cannot be ordered by IC50: less than 1 µM for the first, less than 1 µM for the second.

`O=C(Nc1ccc2c(c1)N(Cc1c(F)cccc1Cl)C(=O)CS2)Nc1c[nH]c2ccccc12` [Example 11, 1-(4-(2-chloro-6-fluorobenzyl)-3-oxo-3,4-dihydro-2H-benzo[b][1,4]thiazin-6-yl)-3-(1H-indol-3-yl)urea] and `O=C(Nc1ccc2c(c1)OCC(=O)N2Cc1c(F)cccc1Cl)Nc1c[nH]c2ccccc12` [Example 2, 1-(4-(2-Chloro-6-fluorobenzyl)-3-oxo-3,4-dihydro-2H-benzo[b][1,4]oxazin-7-yl)-3-(1H-indol-3-yl)urea] cannot be ordered by IC50: less than 1 µM for the first, less than 1 µM for the second.

Compared with `O=C(Nc1ccc2c(c1)N(Cc1ccccc1)C(=O)CS2)Nc1c[nH]c2ccc(-c3cccc(C(F)(F)F)c3)cc12` [Example 67, 1-(4-benzyl-3-oxo-3,4-dihydro-2H-benzo[b][1,4]thiazin-6-yl)-3-(5-(3-(trifluoromethyl)phenyl)-1H-indol-3-yl)urea], `CS(=O)(=O)c1cccc(-c2ccc3[nH]cc(NC(=O)Nc4ccc5c(c4)N(Cc4ccccc4)C(=O)CS5)c3c2)c1` [Example 54, 1-(4-benzyl-3-oxo-3,4-dihydro-2H-benzo[b][1,4]thiazin-6-yl)-3-(5-(3-(methylsulfonyl)phenyl)-1H-indol-3-yl)urea] is higher in IC50: less than 1 µM for the first, 1 to 10 µM for the second. The first is the more potent here.

`O=C(Nc1ccc2c(c1)N(Cc1ccccc1)CCS2)Nc1c[nH]c2cc(F)ccc12` [Example 98, 1-(4-benzyl-3,4-dihydro-2H-benzo[b][1,4]thiazin-6-yl)-3-(6-fluoro-1H-indol-3-yl)urea] and `O=C(Nc1ccc2c(c1)N(c1ccccc1)CCS2)Nc1c[nH]c2ccccc12` [Example 103, 1-(1H-indol-3-yl)-3-(4-phenyl-3,4-dihydro-2H-benzo[b][1,4]thiazin-6-yl)urea] cannot be ordered by IC50: less than 1 µM for the first, less than 1 µM for the second.

`O=C(Nc1ccc2c(c1)SCCN2c1ccccc1)Nc1c[nH]c2ccccc12` [Example 104, 1-(1H-indol-3-yl)-3-(4-phenyl-3,4-dihydro-2H-benzo[b][1,4]thiazin-7-yl)urea] and `O=C(Nc1ccc2c(c1)SCCN2C(=O)c1ccccc1)Nc1c[nH]c2ccccc12` [Example 80, 1-(4-benzoyl-3,4-dihydro-2H-benzo[b][1,4]thiazin-7-yl)-3-(1H-indol-3-yl)urea] cannot be ordered by IC50: less than 1 µM for the first, less than 1 µM for the second.

First: O=C(Nc1ccc2c(c1)N(Cc1ccccc1)C(=O)CS2)Nc1c[nH]c2ccc(-c3cnoc3)cc12 [Example 66, 1-(4-benzyl-3-oxo-3,4-dihydro-2H-benzo[b][1,4]thiazin-6-yl)-3-(5-(isoxazol-4-yl)-1H-indol-3-yl)urea]
Second: Cc1ncc(-c2ccc3[nH]cc(NC(=O)Nc4ccc5c(c4)N(Cc4ccccc4)C(=O)CS5)c3c2)o1 [Example 41, 1-(4-benzyl-3-oxo-3,4-dihydro-2H-benzo[b][1,4]thiazin-6-yl)-3-(5-(2-methyloxazol-5-yl)-1H-indol-3-yl)urea]
The IC50 of the first is lower: less than 1 µM for the first, 1 to 10 µM for the second. The first is the more potent here.

`O=C(Nc1ccc2c(c1)N(Cc1cc(F)cc(F)c1)C(=O)CS2)Nc1c[nH]c2ccccc12` [Example 18, 1-(4-(3,5-difluorobenzyl)-3-oxo-3,4-dihydro-2H-benzo[b][1,4]thiazin-6-yl)-3-(1H-indol-3-yl)urea] and `CC1Sc2ccc(NC(=O)Nc3c[nH]c4ccccc34)cc2N(Cc2cc(F)cc(F)c2)C1=O` (centres unmarked) [Example 33, 1-(4-(3,5-difluorobenzyl)-2-methyl-3-oxo-3,4-dihydro-2H-benzo[b][1,4]thiazin-6-yl)-3-(1H-indol-3-yl)urea] cannot be ordered by IC50: less than 1 µM for the first, less than 1 µM for the second.

First: O=C(Nc1ccc2c(c1)N(Cc1noc3ccccc13)C(=O)CS2)Nc1c[nH]c2ccccc12 [Example 26, 1-(4-(benzo[d]isoxazol-3-ylmethyl)-3-oxo-3,4-dihydro-2H-benzo[b][1,4]thiazin-6-yl)-3-(1H-indol-3-yl)urea]
Second: O=C(Nc1ccc2c(c1)N(Cc1ccncc1)C(=O)CS2)Nc1c[nH]c2ccccc12 [Example 20, 1-(1H-indol-3-yl)-3-(3-oxo-4-(pyridin-4-ylmethyl)-3,4-dihydro-2H-benzo[b][1,4]thiazin-6-yl)urea]
The IC50 of the first is lower: less than 1 µM for the first, 1 to 10 µM for the second.

`O=C(Nc1ccc2c(c1)N(Cc1c(F)cccc1Cl)CCO2)Nc1c[nH]c2ccccc12` [Example 74, 1-(4-(2-chloro-6-fluorobenzyl)-3,4-dihydro-2H-benzo[b][1,4]oxazin-6-yl)-3-(1H-indol-3-yl)urea] and `CC1CN(Cc2cc(F)cc(F)c2)c2cc(NC(=O)Nc3c[nH]c4ccccc34)ccc2S1` (centres unmarked) [Example 94, 1-(4-(3,5-difluorobenzyl)-2-methyl-3,4-dihydro-2H-benzo[b][1,4]thiazin-6-yl)-3-(1H-indol-3-yl)urea] cannot be ordered by IC50: less than 1 µM for the first, less than 1 µM for the second.

Compared with `O=C(Nc1ccc2c(c1)N(Cc1ccccc1)C(=O)CS2)Nc1c[nH]c2ccc(-c3cncc(CO)c3)cc12` [Example 61, 1-(4-benzyl-3-oxo-3,4-dihydro-2H-benzo[b][1,4]thiazin-6-yl)-3-(5-(5-(hydroxymethyl)pyridin-3-yl)-1H-indol-3-yl)urea], `O=C(Nc1ccc2c(c1)N(Cc1ccccc1)C(=O)CS2)Nc1c[nH]c2ccc(-c3cc(F)cc(F)c3)cc12` [Example 40, 1-(4-benzyl-3-oxo-3,4-dihydro-2H-benzo[b][1,4]thiazin-6-yl)-3-(5-(3,5-difluorophenyl)-1H-indol-3-yl)urea] is lower in IC50: 1 to 10 µM for the first, less than 1 µM for the second.

Compared with `CC(O)Cn1cc(-c2ccc3[nH]cc(NC(=O)Nc4ccc5c(c4)N(Cc4ccccc4)C(=O)CS5)c3c2)cn1` (centres unmarked) [Example 68, 1-(4-benzyl-3-oxo-3,4-dihydro-2H-benzo[b][1,4]thiazin-6-yl)-3-(5-(1-(2-hydroxypropyl)-1H-pyrazol-4-yl)-1H-indol-3-yl)urea], `O=C(Nc1ccc2c(c1)N(Cc1ccccc1)C(=O)CS2)Nc1c[nH]c2ccc(Br)cc12` [Example 112, 1-(4-benzyl-3-oxo-3,4-dihydro-2H-benzo[b][1,4]thiazin-6-yl)-3-(5-bromo-1H-indol-3-yl)urea] is lower in IC50: 1 to 10 µM for the first, less than 1 µM for the second. The second is the more potent here.

same assay, conditions: THP1-Dual cells preincubated with compound 10 minutes, stimulation with 5 μM 2′,3′-cGAMP for 20 hr, QUANTI-Luc readout of the supernatant; read-out: THP-1 (HAQ) Activity (IC50 value range)

`CC1Sc2ccc(NC(=O)Nc3c[nH]c4ccccc34)cc2N(Cc2ccccc2)C1=O` (centres unmarked) [Example 35, 1-(4-benzyl-2-methyl-3-oxo-3,4-dihydro-2H-benzo[b][1,4]thiazin-6-yl)-3-(1H-indol-3-yl)urea] gave an IC50 of less than 1 µM.
